Laboratory results published in PMC12278645, “Design, synthesis, and antitumor activity of novel thioheterocyclic nucleoside derivatives by suppressing the c-MYC pathway” (Acta Pharmaceutica Sinica. B, 2025).

Tests used:
[1] = system: HCT116 cells; assay: Intracellular ROS measurement (DCFH-DA); type: cell-based, human; conditions: 48 h
Experimental: HCT116 cells were seeded in 96-well plates overnight and then the cells were treated with defined concentrations of compound 33a or 36b. In addition, cells were pretreated with 0.8 mmol/L NAC for 1 h. After 48 h, the cells were washed with PBS. DCFH-DA (100 μL, 100 μmol/L) was added to each well and incubated for 30 min at 37 °C, and the cells were washed twice with PBS. Finally, the cells were cultivated in a 100 μL culture medium and the fluorescence signals were detected with an EnVision® NexusTM Multi-Mode Microplate Reader or flow cytometry (Becton, Dickinson Company).

[2] = biological target: T1, c-MYC (Homo sapiens, UniProt P01106); assay: Surface plasmon resonance (SPR) assay; type: binding; conditions: c-MYC immobilized on CM5 chip, 25 °C
Experimental: SPR analyses to evaluate the interaction of thioheterocyclic nucleoside derivatives with c-MYC immobilized onto a CM5 sensor chip (Cytiva, BR100012, Sweden) were performed using a Biacore T200 apparatus (Cytiva, Sweden) at 25 °C. During the analyte–ligand interaction, the change of the refractive index was measured in real-time which allowed interaction results to be plotted as response units (RU) versus time.

[3] = system: CT26 (mouse colon cancer); assay: CCK-8 anti-proliferation assay, CT26; type: cell-based; conditions: Mus musculus, CT26; CCK-8, 48 h, mean ± SD
Experimental: (§1) To evaluate their spectrum of anti-proliferative activity, further CCK-8 assays were carried out with the selected compounds (5a/5b, 8a/8b, 33a/33b, and 36a/36b) on MCF-7 (human breast cancer), A375 (human malignant melanoma), DU145 (human prostate cancer), and CT26 (mouse colon cancer) cell lines. The selected compounds had moderate to potent antitumor activity on the four cell lines, indicating their broad spectrum of antitumor activity (Table 5).
(§2) MCF-7, A375, and HeLa cells were cultured in DMEM, HCT116 cells were cultured in McCoy's 5A medium, and DU145 and CT26 were cultured in RPMI 1640 with 10% FBS, 1% penicillin-streptomycin solution (10,000 U/mL penicillin and 10,000 μg/mL streptomycin) at 37 °C under 5% CO2. The cells were seeded in 96-well plates (4 × 10^3 cells/well) overnight and then treated with various concentrations (1–50 μmol/L) of the compound. After 48 h, the cell viability was measured by CCK-8 assay. The absorbance of each well was measured using a microplate reader (Multiskan FC, Thermo Fisher Scientific, Massachusetts, USA) at 450 nm wavelength. Assays were performed in triplicate. Compound concentrations that inhibited cell growth by 50% (IC50) were calculated from the dose–response curves of each cell line. Data are mean ± SD values from three independent experiments.

[4] = system: DU145 (human prostate cancer); assay: CCK-8 anti-proliferation assay, DU145; type: cell-based; conditions: Homo sapiens, DU-145; CCK-8, 48 h, mean ± SD
Experimental: as §1, §2

[5] = system: HCT116 cells; assay: Wound healing assay; type: cell-based, human; conditions: 24 h
Experimental: HCT116 cells were seeded in 6-well plates (6 × 10^5 cells/well) to full confluence and then an artificial wound was created in the cell monolayer using a 200 μl pipette tip. Images of wound closure were captured at 0 and 24 h using a Leica DMIL fluorescence microscope (Leica Microsystems). The percentage of wound closure was calculated using Image J software.

[6] = system: HCT116 cells; assay: Transwell invasion assay; type: cell-based, human; conditions: 24 h
Experimental: A transwell chamber (24-well) (Corning, New York, USA) was coated with Matrigel (BD Biosciences, New Jersey, USA), and 1 × 10^5 cells per well were seeded in the upper chamber in serum-free medium and treated with defined doses of compound 33a or 36b. The complete medium was placed in the lower chamber. After 24 h, the cells penetrating through the pores were stained with 0.1% crystal violet solution and observed with a Leica DMIL fluorescence microscope (Leica Microsystems).

[7] = system: HeLa cells; assay: CCK-8 anti-proliferation assay, HeLa; type: cell-based, human; conditions: Homo sapiens, HeLa, 48 h, CCK-8, 48 h, mean ± SD, three independent experiments
Experimental: (§3) Tumor cell anti-proliferation activities were determined by cell counting kit-8 (CCK-8) assay.
as §2

[8] = Pharmacokinetic analysis; type: in vivo, Sprague–Dawley rats; conditions: for clearance / half-life / Vd / Cmax / Tmax / AUC(0-inf): male, Sprague-Dawley, plasma; for clearance / half-life / Vd / Cmax / Tmax / AUC0-∞: rat; for Vd: read-out: Vss; for AUC(0-inf): heading: AUC0-∞, Table S5, rat
Experimental: All animal studies and procedures were approved by the Animal Ethics Committee of College of Chemistry and Chemical Engineering, Henan Normal University, China. Male Sprague–Dawley rats (220 ± 10 g, Shanghai Yuanxin Biological Co., Ltd., Shanghai, China) were used to evaluate drug pharmacokinetic properties. Briefly, compound 33a or 36b was dissolved in PBS containing 10% DMSO and 20% castor oil. Rats were treated with 1 mg/kg of compound 33a or 36b for intravenous injection and 2 mg/kg for oral intragastric administration. Blood samples were collected from each rat at 0, 0.083, 0.25, 0.5, 1, 2, 4, 6, 8, 12, and 24 h. Plasma was isolated from the blood samples by centrifugation (1200 rpm, 4 °C, 10 min. ThermoFisher Scientific, Thermo Electron LED GmbH, Zweigniederlassung Osterode Am Kalkberg, Osterode am Harz, Germany). Sample concentrations were determined by LC-MS/MS (API 4000, AB SCIEX) based on a standard curve. All data were calculated by Excel software.

[9] = system: HCT116 cells; assay: Cell apoptosis (Annexin V-FITC/PI, flow cytometry); type: cell-based, human; conditions: 48 h
Experimental: HCT116 cells were seeded in 6-well plates (4 × 10^5 cells/well). The following day, defined concentrations of compound 33a or 36b were added to the wells for 48 h at 37 °C with 5% CO2. The cells were collected and stained with Annexin V-FITC and PI for 15 min at room temperature. Apoptotic cells were analyzed with flow cytometry (BD Bioscience).

[10] = biological target: T1, c-MYC; assay: Cellular thermal shift assay (CETSA); type: binding; set-up: HCT116 cells were lysed with mammalian protein extraction reagent (M-PER); endogenous in cells; host or cells: HCT116; conditions: 40-70 °C
Experimental: In short, the lysates were incubated with 33a or 36b or DMSO for 30 min. The […] were divided equally and individually heated at different temperatures (40–70 °C) for 3 min and then cooled on ice. After freeze-thawing twice with liquid nitrogen, the supernatant was centrifuged, collected, and boiled in a loading buffer. c-MYC protein was analyzed by Western blot.

[11] = system: HCT116 cells; assay: CCK-8 anti-proliferation assay, HCT116; type: cell-based, human; conditions: Homo sapiens, HCT-116, 48 h, CCK-8, 48 h, mean ± SD, three independent experiments
Experimental: as §3, §2

T1 sequence (P01106 whole entry): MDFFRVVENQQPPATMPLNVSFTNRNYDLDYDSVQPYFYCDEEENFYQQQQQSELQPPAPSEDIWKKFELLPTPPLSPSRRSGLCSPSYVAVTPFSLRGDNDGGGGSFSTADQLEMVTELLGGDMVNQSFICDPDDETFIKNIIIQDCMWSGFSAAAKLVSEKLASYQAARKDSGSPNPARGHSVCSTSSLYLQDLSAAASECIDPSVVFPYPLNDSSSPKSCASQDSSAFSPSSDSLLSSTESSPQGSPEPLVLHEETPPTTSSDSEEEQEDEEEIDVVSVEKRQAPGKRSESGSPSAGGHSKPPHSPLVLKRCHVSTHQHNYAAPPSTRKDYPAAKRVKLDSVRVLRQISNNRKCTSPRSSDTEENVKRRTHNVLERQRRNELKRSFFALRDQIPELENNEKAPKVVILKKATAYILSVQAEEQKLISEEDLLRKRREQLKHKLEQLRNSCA

Structure (SMILES)	ROS levels [1]	Kd [2] [µM]	IC50 [3] [µM]	IC50 [4] [µM]	wound healing [5]	invasion [6]	IC50 [7] [µM]	clearance ([8]; IV, 1 mg/kg) [mL/min/kg]	half-life ([8]; IV, 1 mg/kg) [h]	Vd ([8]; IV, 1 mg/kg) [L/kg]	Cmax ([8]; oral (i.g.), 2 mg/kg) [ng/mL]	Tmax ([8]; oral (i.g.), 2 mg/kg) [h]	half-life ([8]; oral (i.g.), 2 mg/kg) [h]	AUC0-∞ ([8]; IV, 1 mg/kg) [ng·h/mL]	AUC0-∞ ([8]; oral (i.g.), 2 mg/kg) [ng·h/mL]	apoptosis [9]	thermal stability of c-MYC [10]	IC50 [11] [µM]	AUC(0-inf) ([8]; 1 mg/kg, IV, 1 mg/kg) [ng·h/mL]	AUC(0-inf) ([8]; 2 mg/kg, oral, 2 mg/kg) [ng·h/mL]
CCOC(=O)[C@]1(n2cnc3c(N4CCCCC4)nc(F)nc32)CSC[C@H]1O (racemic) [33a]	significantly increased ROS levels in a dose-dependent manner	42.9	0.57 ± 0.13	21.1 ± 1.21	significantly delay the wound healing ability of HCT116 cells in a dose-dependent manner	distinctly reduced the number of HCT116 cells passing through the matrix membrane	8.73 ± 1.02	5.1	5	2.15	301	4	6.8	3270	3310	induced apoptosis in a dose-dependent manner	increase the thermal stability of c-MYC in HCT116 cells from 40 to 70 °C	0.27 ± 0.01	–	–
CCCSc1nc(F)nc2c1ncn2[C@@]1(C(=O)OCC)CSC[C@@H]1O (relative stereo) [36b]	significantly increased ROS levels in a dose-dependent manner	206	0.85 ± 0.09	6.59 ± 1.36	significantly delay the wound healing ability of HCT116 cells in a dose-dependent manner	distinctly reduced the number of HCT116 cells passing through the matrix membrane	6.35 ± 1.08	1.89	4.9	3.54	276	4	4.1	–	–	induced apoptosis in a dose-dependent manner	increase the thermal stability of c-MYC in HCT116 cells from 40 to 70 °C	0.49 ± 0.08	8800	1800
